Marks after values point to notes of the source that are not given here.
Columns and labels:
[1] = DPPH radical scavenging assay; type: biochemical; conditions: Trolox equivalent antioxidant capacity
Protocol: (§1) The antioxidant activities of the 70% methanol extract of M. volcanica and the separated compounds were evaluated using DPPH, ABTS, and ORAC assays. The results were expressed as Trolox equivalent antioxidant capacity (TEAC, µg Trolox/µg extract or µM Trolox/µM compound), which were calculated with the equations obtained from the calibration curves of Trolox standards (final concentrations) versus their DPPH and ABTS radical inhibition (%) and the net AUC value (ORAC assay).
The DPPH radical scavenging assay was carried out using an EL800 microplate reader (Bio-Tek Instruments, Winooski, VT, USA). Briefly, 180 μL of freshly prepared DPPH solution (0.32 mM in methanol) was mixed with 20 μL of sample (dissolved in methanol, extract 250 µg/mL; compounds 62.5–1000 µM) in a 96-well plate. The mixture was incubated for 20 min in the dark at 25 °C, and then, the absorbance was measured at […]. […] Results are expressed in µg Trolox equivalents/µg extract or µM Trolox equivalents/µM compound. The DPPH radical scavenging activity (%) is calculated using Equation (1):(1) %inhibition=1−Asample−Ablank1/Acontrol−Ablank2×100%, where Asample is the absorbance of DPPH solution with a sample, Ablank1 is the absorbance of the test sample without DPPH, Acontrol is the absorbance of DPPH solution without a sample, Ablank2 is the absorbance of methanol, without DPPH or a sample.

[2] = cited from earlier work
aldose reductase (AR) = biological target: T1, aldose reductase (AR) (Rattus norvegicus, UniProt P07943); assay: Aldose reductase (AR) inhibition assay, rat lens homogenate; type: biochemical, Sprague–Dawley rats
T1 construct: centrifuged at 10,000× g for 30 min at 4 °C (Centrifuge 5417R, Eppendorf, Germany) to obtain AR homogenate (in the supernatant); from tissue; host or cells: eye lenses of Sprague–Dawley rats
Protocol: For the extraction of AR, the rat eye lenses were grounded in a precooled mortar (−70 °C) and extracted using 0.1 M PBS (pH 6.2; about 0.5 mL of PBS per two frozen rat lenses).
A 96-well plate-based AR inhibition assay was used in this study, which was modified from a previous method. In principle, the rate of the absorbance decrease of NADPH at 340 nm (OD340 nm) was used for evaluation of the AR inhibitory activity. […] Then, as soon as 20 μL of the substrate (DL-glyceraldehyde dimer, 25 mM in 0.1 M PBS, pH 7.0) was added, the absorbance of the reaction solution at 340 nm was measured for 6 min using an Epoch microplate spectrophotometer (BioTek Instruments, Highland Park, IL, USA). […] The samples were first prepared at high concentrations in DMSO or in a mixture of DMSO and water and then diluted using water shortly before the experiment. The concentration of DMSO was kept within 0.2% (v/v) in the reaction system. […] The AR inhibition ratio (%) for the samples was calculated using Equation (4):(4) %inhibition=1−Slopes−Slopeb/Slopec−Slopeb×100%, where Slopec, Slopes, and Slopeb are the slopes obtained from the OD340 nm versus the reaction time (min) dotted lines of the control group (without sample), sample group (with enzyme and sample), and blank group (without enzyme or sample), respectively. |Slope| is the absolute value of Slope.

diabetic rats = conditions: cited from earlier work
human erythrocytes = test system: human erythrocytes; design: method as in earlier work; conditions: high glucose conditions; cited from earlier work
[3] = ORAC (oxygen radical absorbance capacity) assay; type: biochemical; conditions: Trolox equivalent antioxidant capacity, ORAC assay (peroxyl radicals)
Protocol: as §1
The ORAC assay was carried out using a Fluoroskan Ascent FL microplate reader (Thermo, Waltham, MA, USA) using the method described previously with minor modifications. Antioxidants can scavenge the peroxyl radicals generated by AAPH, which prevent the degradation of the fluorescein and, therefore, prevent the loss of the fluorescence of fluorescein. Briefly, fluorescein sodium salt (117 nM) and AAPH (40 mM) were freshly prepared in 0.1 M phosphate-buffered saline (PBS, pH 7.4). For reaction, 120 µL of fluorescein sodium salt (117 nM) and 20 µL of sample (dissolved in methanol, extract 10–20 µg/mL; compounds 10–160 µM) were mixed in a black 96-well plate and pre-incubated for 15 min at 37 °C. Next, 60 µL of AAPH (40 mM) was added, and the fluorescence was measured 100 times (interval 1 min) at excitation and emission wavelengths of 485 nm and 538 nm, respectively, by the microplate reader maintained at 37 °C. […] The relative ORAC values are expressed in µg Trolox equivalents/µg extract or µM Trolox equivalents/µM compound.

[4] = test system: streptozotocin-induced diabetic rats; conditions: cited from earlier work
[5] = ABTS radical scavenging assay; type: biochemical; conditions: Trolox equivalent antioxidant capacity
Protocol: as §1
The ABTS radical scavenging assay was carried out using the same EL800 microplate reader. Briefly, 0.2 mM of ABTS diammonium salt was prepared in 3.5 mM of potassium persulfate aqueous solution, and the mixture solution was then diluted 10 times using distilled water. The diluted solution was allowed to stand for 24 h in the dark at room temperature (about 25 °C) to produce ABTS radical cations (ABTS^+). For reaction, 290 μL of ABTS^+ solution was mixed with 10 μL of sample (dissolved in methanol, extract 62.5–125 µg/mL; compounds 20–250 µM) in a 96-well plate, and the mixture solution was allowed to react for 10 min at 25 °C in the dark. Then, the absorbance was measured at 750 nm. […] Results are expressed in µg Trolox equivalents/µg extract or µM Trolox equivalents/µM compound. The ABTS radical scavenging activity (%) is calculated using Equation (1) where Asample is the absorbance of ABTS^+ solution with a sample, Ablank1 is the absorbance of the test sample without ABTS^+, Acontrol is the absorbance of ABTS^+ solution without a sample, Ablank2 is the absorbance of buffer, without ABTS^+ or a sample.

[6] = biological target: fructose-mediated bovine serum albumin (BSA) glycation (Bos taurus, UniProt P02769); assay: Antiglycation assay, fructose-mediated BSA glycation model
Protocol: The antiglycation assay was carried out using a fructose-mediated BSA glycation model as reported previously [43] with minor modifications. […] Then, 200 µL of the reaction solution from each sample was pipetted to black 96-well plates to determine the fluorescent AGEs using a microplate fluorescence reader (BIOTEK-FLx800, Winooski, VT, USA) at excitation and emission wavelengths of 360 ± 20 nm and 460 ± 20 nm, respectively. Aminoguanidine [25], a synthetic antiglycation agent, was used as a positive control with final concentrations of 200 µg/mL to 800 µg/mL or 1 mM to 4 mM.

[7] = test system: streptozotocin-induced diabetic cats; conditions: cited from earlier work
[8] = read-out: Antiglycation activity, inhibition (%)

fructose-mediated bovine serum albumin (BSA) glycation, sequence (P02769 25-607): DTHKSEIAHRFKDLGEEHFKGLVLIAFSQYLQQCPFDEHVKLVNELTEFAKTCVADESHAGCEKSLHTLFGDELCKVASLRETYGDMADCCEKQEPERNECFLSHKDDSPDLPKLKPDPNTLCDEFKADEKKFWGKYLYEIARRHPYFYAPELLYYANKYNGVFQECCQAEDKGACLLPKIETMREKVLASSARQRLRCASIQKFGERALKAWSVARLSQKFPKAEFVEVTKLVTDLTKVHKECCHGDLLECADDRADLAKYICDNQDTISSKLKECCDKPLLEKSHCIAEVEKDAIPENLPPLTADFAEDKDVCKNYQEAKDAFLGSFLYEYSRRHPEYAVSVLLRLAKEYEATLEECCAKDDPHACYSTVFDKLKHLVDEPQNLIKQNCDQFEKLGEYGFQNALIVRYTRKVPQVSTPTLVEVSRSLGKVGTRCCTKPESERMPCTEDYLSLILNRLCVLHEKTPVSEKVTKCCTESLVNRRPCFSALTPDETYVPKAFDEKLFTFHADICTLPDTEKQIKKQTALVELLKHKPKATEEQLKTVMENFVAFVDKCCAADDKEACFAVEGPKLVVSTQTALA

## C[C@@H]1O[C@@H](OC[C@H]2O[C@@H](Oc3c(-c4ccc(O)c(O)c4)oc4cc(O)cc(O)c4c3=O)[C@H](O)[C@@H](O)[C@@H]2O)[C@H](O)[C@H](O)[C@H]1O [Rutin (8), rutin]
[1]
  TEAC, DPPH: 0.90 ± 0.09 ^e µM trolox/µM Compound
[2]
  Inhibition of AGEs by trapping methylglyoxal: inhibit AGEs by trapping methylglyoxal
Aldose reductase (AR); 3.125 µM, read-out: AR inhibition activity, inhibition (%)
  inhibition at 3.125 µM: 46.4 ± 1.21%
Aldose reductase (AR); 6.25 µM, read-out: AR inhibition activity, inhibition (%)
  inhibition at 6.25 µM: 62.79 ± 0.3%
Aldose reductase (AR); 12.5 µM, read-out: AR inhibition activity, inhibition (%)
  inhibition at 12.5 µM: 75.2 ± 0.9%
Aldose reductase (AR); 25 µM, read-out: AR inhibition activity, inhibition (%)
  inhibition at 25 µM: 84.5 ± 1.51%
Aldose reductase (AR); rat lens AR homogenate
  IC50: 3.51 ± 0.12 µM
Diabetic rats
  Progression of lens opacification: delay the progression of lens opacification
Human erythrocytes
  Accumulation of sorbitol in human erythrocytes: suppress the accumulation of sorbitol
[3]
  TEAC, ORAC: 5.77 ± 0.08 ^b µM trolox/µM Compound
[4]
  Effect on oxidative stress: ameliorate the oxidative stress
[5]
  TEAC, ABTS: 1.12 ± 0.04 ^d µM trolox/µM Compound
[6]
  IC50: 20.1 ± 0.23 µM
[6]; [8]
  inhibition at 12.5 µM: 30.8 ± 1.1%
  inhibition at 25 µM: 61.7 ± 2.49%
  inhibition at 50 µM: 81.82 ± 0.65%
  inhibition at 100 µM: 91.51 ± 0.4%
[7]
  Impaired cardiac function: partially reverse the impaired cardiac function
